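48-hour exposure; five concentrations; linearly interpolated endpoints. Here, GI50 denotes the concentration required for 50% inhibition of growth.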 Active and inactive are the calls of the source. Cut-off read from the data, not from the text of the source: active = GI50 up to about 1.1 µM and inactive = higher.
What was measured:
Test in all cases: inhibition of tumour cell growth, NCI panel, 48 h
UACC-257 = tested on: UACC-257
HOP-92 = tested on: HOP-92
NCI-H522 = tested on: NCI-H522
HT-29 = tested on: HT-29
HCC 2998 = tested on: HCC 2998
SN12C = tested on: SN12C
NCI-H23 = tested on: NCI-H23
RPMI-8226 = tested on: RPMI-8226
A549 = tested on: A549
U-251 = tested on: U-251
A498 = tested on: A498
EKVX = tested on: EKVX
NCI-H226 = tested on: NCI-H226
SK-OV-3 = tested on: SK-OV-3
CCRF-CEM = tested on: CCRF-CEM
Malme-3M = tested on: Malme-3M
COLO 205 = tested on: COLO 205
UACC-62 = tested on: UACC-62

Structure (SMILES)	GI50 (UACC-257)	GI50 (HOP-92)	GI50 (NCI-H522)	GI50 (HT-29)	GI50 (HCC 2998)	GI50 (SN12C)	GI50 (NCI-H23)	GI50 (RPMI-8226)	GI50 (A549)	GI50 (U-251)	GI50 (A498)	GI50 (EKVX)	GI50 (NCI-H226)	GI50 (SK-OV-3)	GI50 (CCRF-CEM)	GI50 (Malme-3M)	GI50 (COLO 205)	GI50 (UACC-62)
CCCCn1c(N)c(-c2nc3ccccc3o2)sc1=S	60.7 µM (inactive)	45.5 µM (inactive)	14.2 µM (inactive)	27.4 µM (inactive)	36.1 µM (inactive)	22.1 µM (inactive)	15.6 µM (inactive)	21.7 µM (inactive)	13.6 µM (inactive)	15.9 µM (inactive)	31.8 µM (inactive)	21.8 µM (inactive)	15.7 µM (inactive)	22.7 µM (inactive)	32.8 µM (inactive)	16.3 µM (inactive)	29.4 µM (inactive)	11.2 µM (inactive)
NNC(=O)Nc1nc2ccc(NN)cc2[nH]1	31.8 µM (inactive)	19.7 µM (inactive)	29.6 µM (inactive)	34.5 µM (inactive)	18.5 µM (inactive)	42.2 µM (inactive)	44.1 µM (inactive)	7 µM (inactive)	74 µM (inactive)	37 µM (inactive)	23.6 µM (inactive)	65.5 µM (inactive)	20.2 µM (inactive)	40.2 µM (inactive)	14.6 µM (inactive)	59.6 µM (inactive)	16.5 µM (inactive)	21.1 µM (inactive)
NCCN(CCN)/[N+]([O-])=N/O	> 100 µM (inactive)	> 100 µM (inactive)	93.3 µM (inactive)	> 100 µM (inactive)	> 100 µM (inactive)	> 100 µM (inactive)	> 100 µM (inactive)	> 100 µM (inactive)	> 100 µM (inactive)	> 100 µM (inactive)	> 100 µM (inactive)	> 100 µM (inactive)	> 100 µM (inactive)	> 100 µM (inactive)	43.6 µM (inactive)	> 100 µM (inactive)	> 100 µM (inactive)	> 100 µM (inactive)
Cc1cc(C)n(-c2nc(-n3nc(C)cc3C)nc(-n3nc(C)cc3C)n2)n1	> 100 µM (inactive)	> 100 µM (inactive)	> 100 µM (inactive)	> 100 µM (inactive)	> 100 µM (inactive)	> 100 µM (inactive)	88.7 µM (inactive)	93.1 µM (inactive)	> 100 µM (inactive)	> 10 µM (inactive)	> 100 µM (inactive)	40.2 µM (inactive)	35.8 µM (inactive)	> 100 µM (inactive)	62.7 µM (inactive)	37.2 µM (inactive)	> 100 µM (inactive)	> 100 µM (inactive)
Cn1c2ccccc2c2c3c(c4c5ccccc5n(C)c4c21)C(=O)N(Cc1ccccc1)C3=O	> 100 µM (inactive)	> 100 µM (inactive)	> 100 µM (inactive)	> 100 µM (inactive)	> 100 µM (inactive)	> 100 µM (inactive)	> 100 µM (inactive)	> 100 µM (inactive)	90.2 µM (inactive)	> 100 µM (inactive)	79.1 µM (inactive)	> 100 µM (inactive)	> 100 µM (inactive)	> 100 µM (inactive)	> 100 µM (inactive)	> 100 µM (inactive)	> 100 µM (inactive)	> 100 µM (inactive)
COC(=O)C1OC(O[C@H]2CC[C@]3(C)[C@H]4CC=C5[C@@H]6CC(C)(C)CC[C@]6(C(=O)OC6OCC(O)C(O)C6OC6OC(C)C(OC7OCC(O)C(O)C7O)C(OC7OCC(O)(CO)C7O)C6O)[C@H](O)C[C@@]5(C)[C@]4(C)CC[C@H]3C2(C)C)C(O)C(O)C1O (some centres not stated)	2.96 µM (inactive)	1.83 µM (inactive)	2.14 µM (inactive)	2.54 µM (inactive)	2.29 µM (inactive)	1.85 µM (inactive)	1.8 µM (inactive)	3.86 µM (inactive)	3.52 µM (inactive)	6.5 µM (inactive)	1.76 µM (inactive)	2.77 µM (inactive)	4.23 µM (inactive)	12.2 µM (inactive)	14.9 µM (inactive)	4.14 µM (inactive)	1.57 µM (inactive)	2.51 µM (inactive)
O=C(N/N=C/c1ccc(Cl)cc1)c1c(Cl)c(Cl)c(Cl)c(Cl)c1-c1nc2ccccc2[nH]1	–	23.6 µM (inactive)	55.7 µM (inactive)	47.3 µM (inactive)	5.5 µM (inactive)	> 100 µM (inactive)	> 100 µM (inactive)	22.2 µM (inactive)	> 100 µM (inactive)	–	98.2 µM (inactive)	16.9 µM (inactive)	0.224 µM (active)	0.0454 µM (active)	50.4 µM (inactive)	> 100 µM (inactive)	> 100 µM (inactive)	80.9 µM (inactive)
O=[N+]([O-])c1ccc(N2N=C(c3c(O)ccc4ccccc34)CC2c2ccc(Cl)cc2)c([N+](=O)[O-])c1 (configuration not stated)	37.1 µM (inactive)	26 µM (inactive)	31.5 µM (inactive)	20.1 µM (inactive)	28.6 µM (inactive)	33.4 µM (inactive)	19.1 µM (inactive)	15.3 µM (inactive)	15.1 µM (inactive)	30 µM (inactive)	22.6 µM (inactive)	–	20.9 µM (inactive)	27.5 µM (inactive)	11.1 µM (inactive)	15.2 µM (inactive)	16.1 µM (inactive)	7.13 µM (inactive)
CN1CCC(n2[nH]c(-c3ccccc3)c(Cc3ccccc3)c2=O)CC1 [BENZPIPERYLON]	> 100 µM (inactive)	> 100 µM (inactive)	> 100 µM (inactive)	87.9 µM (inactive)	> 100 µM (inactive)	> 100 µM (inactive)	> 100 µM (inactive)	46.8 µM (inactive)	> 100 µM (inactive)	> 100 µM (inactive)	93.3 µM (inactive)	> 100 µM (inactive)	> 100 µM (inactive)	> 100 µM (inactive)	37.9 µM (inactive)	90.8 µM (inactive)	> 100 µM (inactive)	> 100 µM (inactive)
COc1ccc(/C(Cl)=C(\CNc2ccccn2)c2ccccc2)cc1OC	> 100 µM (inactive)	> 100 µM (inactive)	99.8 µM (inactive)	> 100 µM (inactive)	> 100 µM (inactive)	> 100 µM (inactive)	> 100 µM (inactive)	> 100 µM (inactive)	> 100 µM (inactive)	> 100 µM (inactive)	> 100 µM (inactive)	> 100 µM (inactive)	> 100 µM (inactive)	> 100 µM (inactive)	> 100 µM (inactive)	> 100 µM (inactive)	> 100 µM (inactive)	> 100 µM (inactive)
CN(C)S(=O)(=O)c1ccc2c(c1)/C(=C1/Nc3ccccc3C1=O)C(=O)N2	> 100 µM (inactive)	16.8 µM (inactive)	25.5 µM (inactive)	> 100 µM (inactive)	> 100 µM (inactive)	38 µM (inactive)	16.1 µM (inactive)	> 100 µM (inactive)	> 100 µM (inactive)	10.6 µM (inactive)	29.8 µM (inactive)	24 µM (inactive)	25.2 µM (inactive)	13.9 µM (inactive)	> 100 µM (inactive)	> 100 µM (inactive)	> 100 µM (inactive)	14.7 µM (inactive)
CCN1CCC(O)(/C=C/c2ccc(Cl)c(Cl)c2)C(C(=O)/C=C/c2ccc(Cl)c(Cl)c2)C1 (configuration not stated)	0.986 µM (active)	0.621 µM (active)	0.948 µM (active)	0.689 µM (active)	1.71 µM (inactive)	0.873 µM (active)	0.255 µM (active)	0.136 µM (active)	0.673 µM (active)	2.11 µM (inactive)	0.891 µM (active)	0.731 µM (active)	1.84 µM (inactive)	1.72 µM (inactive)	0.306 µM (active)	1.05 µM (active)	0.705 µM (active)	0.973 µM (active)
CO/N=C1\CC(C)N2C(=O)C(C(C)C)NC(=O)C(NC(=O)c3c4nc5c(C(=O)NC6C(=O)NC(C(C)C)C(=O)N7C(C)CC(O)C7C(=O)N(C)CC(=O)N(C)C(C(C)C)C(=O)OC6C)ccc(C)c5oc-4c(C)c(=O)c3N)C(CO)OC(=O)C(C)N(C)C(=O)CN(C)C(=O)C12 (configuration not stated)	0.65 µM (active)	0.753 µM (active)	0.249 µM (active)	0.526 µM (active)	0.869 µM (active)	0.416 µM (active)	1.43 µM (inactive)	0.0984 µM (active)	0.815 µM (active)	0.242 µM (active)	1.13 µM (inactive)	4 µM (inactive)	1.05 µM (active)	3.66 µM (inactive)	0.0703 µM (active)	0.374 µM (active)	0.411 µM (active)	0.29 µM (active)
COc1ccc(-c2cs/c(=N\c3ccccc3)n2CC(O)c2ccc([N+](=O)[O-])cc2)cc1 (configuration not stated)	> 76.9 µM (inactive)	> 100 µM (inactive)	> 100 µM (inactive)	> 100 µM (inactive)	> 100 µM (inactive)	> 100 µM (inactive)	> 100 µM (inactive)	6.37 µM (inactive)	> 100 µM (inactive)	> 100 µM (inactive)	> 100 µM (inactive)	> 100 µM (inactive)	> 100 µM (inactive)	> 100 µM (inactive)	> 71.1 µM (inactive)	> 100 µM (inactive)	> 100 µM (inactive)	> 73.5 µM (inactive)
CC/C(Cl)=N\OC(=O)Nc1ccccc1OC(F)(F)F	17.2 µM (inactive)	2.39 µM (inactive)	0.665 µM (active)	21.3 µM (inactive)	18.6 µM (inactive)	7.05 µM (inactive)	20.9 µM (inactive)	1.73 µM (inactive)	22.6 µM (inactive)	26.4 µM (inactive)	19.6 µM (inactive)	7 µM (inactive)	19.1 µM (inactive)	20.2 µM (inactive)	1.75 µM (inactive)	4.52 µM (inactive)	2.1 µM (inactive)	17 µM (inactive)
